Measurements as given in PMC10895676, “Antiviral Activity of Lipophilic Nucleoside Tetraphosphate Compounds” (Journal of Medicinal Chemistry, 2024).
Where two headings read alike, the source gives them in different places.

How the values were obtained:
HIV-RT = molecular target: T1, HIV-RT (Human immunodeficiency virus type 1 group M subtype B, UniProt P03366); assay: Primer extension assay using HIV-RT; type: biochemical; details: 30 min, 6 U HIV-RT, 37 °C
T1 construct: HIV-RT HIV reverse transcriptase; purchased Roboklon
Procedure: Figure 6 Primer extension assay using HIV-RT (A), human polymerases α (B), β (C), and γ (D). (Figure 6A). Primer extension assay using HIV-RT (30 min, 6U). Lane 1: (+) dATP, dCTP, dGTP, and TTP with HIV-RT. Lane 2: (−) dATP, dCTP, dGTP, and TTP without HIV-RT. Lane 3: TTP. […] Lane 5: δ-(C4; C18)-d4T4P 4d. […] Lane 7: δ-(C18)-d4T4P 20. Lane 8: δ-C-(C18)-d4T4P 24. Lane 9: d4T4P. Lane 10: d4TTP. Lane 11: d4TDP. HIV-RT assay reaction conditions: 50 mM Tris–HCl (pH 8.6), 10 mM MgCl2, 40 mM KCl, 250 μM dNTPs, HIV-RT (6 U), 0.20 μM DNA hybrid, primer-template-hybrid 0.32 mM in a reaction volume of 10 μL, incubated at 37 °C for 0.5 h, 80 °C for 7 min. Primer extension assays: 50 mA, 45 w for 4 h. (Figure 6B). For human DNA polymerase α assay (60 min, 2 U): Lane 1: (+) dATP, dCTP, dGTP, and TTP with human polymerase α. Lane 2: (−) dATP, dCTP, dGTP, and TTP without human polymerase α. Lane 3: TTP. […] Lane 5: δ-(C4; C18)-d4T4P 4d. […] Lane 7: δ-(C18)-d4T4P 20. Lane 8: δ-C-(C18)-d4T4P 24. Lane 9: d4T4P. Lane 10: d4TTP. Human DNA polymerase α assay conditions: 60 mM Tris–HCl (pH 8), 5 mM Mg(OAc)2, 100 mM KCl, 1.0 mM dithiothreitol, 0.1 mM spermine, 0.01% (w/v) bovine serum albumin, 250 μM dNTPs, 2 U human polymerase α, 0.20 μM DNA hybrid, and primer-template-hybrid 0.32 mM in a reaction volume of 10 μL, incubated at 37 °C for 1 h, 80 °C for 7 min. Primer extension assays: 50 mA, 45 w for 3 h. (Figure 6C). For human DNA polymerase β assay (60 min, 2 U): Lane 1: (+) dATP, dCTP, dGTP, and TTP with human polymerase β. Lane 2: (−) dATP, dCTP, dGTP, and TTP without human polymerase β. Lane 3: TTP. […] Lane 5: δ-(C4; C18)-d4T4P 4d. […] Lane 7: δ-(C18)-d4T4P 20. Lane 8: δ-C-(C18)-d4T4P 24. Lane 9: d4T4P. Lane 10: d4TTP. Human DNA polymerase β assay conditions: 50 mM Tris–HCl (pH 8.7), 10 mM Mg(OAc)2, 100 mM KCl, 1.0 mM dithiothreitol, 0.1 mM spermine, 0.01% (w/v) bovine serum albumin, 15% glycerol, 250 μM dNTPs, 2 U human DNA polymerase β, 0.20 μM DNA hybrid, and primer-template-hybrid 0.32 mM in a reaction volume of 10 μL, incubated at 37 °C for 1 h, 80 °C for 7 min. Primer extension assays: 50 mA, 45 w for 3 h. (Figure 6D), For the human DNA polymerase γ assay (120 min, 2 U): Lane 1: (+) dATP, dCTP, dGTP, and TTP with human polymerase γ. Lane 2: (−) dATP, dCTP, dGTP, and TTP without human polymerase γ. Lane 3: TTP. […] Lane 5: δ-(C4; C18)-d4T4P 4d. […] Lane 7: δ-(C18)-d4T4P 20. Lane 8: δ-C-(C18)-d4T4P 24. Lane 9: d4T4P. Lane 10: d4TTP. Human polymerase γ assay conditions: 60 mM Tris–HCl (pH 8), 5 mM Mg(OAc)2, 1.0 mM dithiothreitol, 0.1 mM spermine, 0.01% (w/v) bovine serum albumin, 250 μM dNTPs, 2 U human polymerase γ, 0.5 μM MnCl2, 0.20 μM DNA hybrid, primer-template-hybrid 0.32 mM in a reaction volume of 10 μL, incubated at 37 °C for 2 h, 80 °C for 7 min. Primer extension assays: 50 mA, 45 w for 3 h.
HIV-RT and human polymerases α, β, and γ were bought from Roboklon and Chimerx. The fluorescent-labeled primer and template were obtained from Metabion.
For the annealing of the primer/template mixture, 40 μL of the 10 μM primer and 60 μL of the 10 μM template were incubated for 5 min at 95 °C. Then, for optimal annealing, the temperature was reduced over a period of 2 h to 20 °C and incubated again for 20 min at 20 °C.
For the primer extension, the reaction mixture was incubated for 30 min for the HIV-RT, 60 min for the human DNA polymerase α, and 120 min for the human DNA polymerases β and γ at 37 °C, followed by 7 min at 80 °C.

pig liver esterase (PLE) = assay: Enzymatic hydrolysis with pig liver esterase (PLE); type: in vitro ADME; details: pig liver esterase in phosphate buffer, PLE in phosphate buffer pH 7.3, 37 °C, read-out: PLE t1/2 (converted)
Procedure: To confirm the enzymatic hydrolysis process, TetraPPPPro-nucleotides 4–9 bearing different kinds of lipophilic groups attached to the δ-phosph(on)ate group were incubated with PLE in phosphate buffer.
Then, 833 μL of 50 mM phosphate buffer (pH 7.3) and 125 μL of DMSO were added to the 6.0 mM hydrolysis solutions. The reaction was started by addition of 62.5 μL of PLE in phosphate buffer (100 units/mL), and the mixture was incubated at 800 rpm at 37 °C in a thermomixer. (1). At different times, aliquots (75 μL) were taken and stopped by the addition of […] of MeOH. The mixture was stored in liquid nitrogen. When testing, samples were warmed up to room temperature, and 60 μL of the liquid was directly injected into HPLC analysis. (2). 40 μL for each extraction was stored in liquid nitrogen. When testing, samples were warmed up to room temperature, and 30 μL of the liquid was taken and injected into the analytical RP-18-HPLC instrument. The calculation of t1/2 was performed analogously to that for the chemical hydrolysis studies.

[1] = Chemical hydrolysis in aqueous buffers (PBS pH 7.3 / 8.0, citrate buffer pH 2.0), RP18-HPLC; type: physicochemical; details: for half-life: 25 mM citrate buffer, pH 2.0, 37 °C; for half-life at 1.9 mM: phosphate buffered saline
How it was run: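 Compound incubated at 37 °C in PBS pH 7.3 or 8.0, or citrate/NaCl/HCl buffer adjusted to pH 2.0 with NaOH. Aliquots sampled over time, stored at −30 °C, and hydrolysis products quantified by RP18-HPLC with UV detection.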

[2] = 25 mM PBS, pH 7.3, 37 °C, read-out: PBS pH 7.3 t1/2 (converted)
[3] = PBS, pH 8.0, 37 °C, read-out: PBS pH 8.0 t1/2 (converted)

SMILES	substrate for HIV-RT (primer extension) (HIV-RT)	half-life at 0.45 mM (pig liver esterase (PLE))	half-life [1]	half-life at 1.9 mM [1, 2]	half-life at 1.9 mM [1, 3]
CCCCCCCCCCCCCCCCCCOP(=O)(OCCCC)OP(=O)(O)OP(=O)(O)OP(=O)(O)OC[C@@H]1C=C[C@H](n2cc(C)c(=O)[nH]c2=O)O1 (some centres unmarked) [4d, δ-(Alkyl-C4; alkyl-C18)-d4T4P]	good substrates	> 50 h	66 h	251 h	> 100 h
CCCCCCCCCCCCCCCCCCP(=O)(OCCCC)OP(=O)(O)OP(=O)(O)OP(=O)(O)OC[C@@H]1C=C[C@H](n2cc(C)c(=O)[nH]c2=O)O1 (some centres unmarked) [5a, δ-(Alkyl-C4)-δ-C-(alkyl-C18)-d4T4P]	good substrates	> 50 h	> 150 h	> 1000 h	> 200 h
CCCCCCCCCCCCCCCCCCP(=O)(O)OP(=O)(O)OP(=O)(O)OP(=O)(O)OC[C@@H]1C=C[C@H](n2cc(C)c(=O)[nH]c2=O)O1 [compound 24, δ-C-(Alkyl-C18)-d4T4P]	substrates	> 50 h		> 1000 h	
CCCCCCCCCCCCCCCCCCOP(=O)(O)OP(=O)(O)OP(=O)(O)OP(=O)(O)OC[C@@H]1C=C[C@H](n2cc(C)c(=O)[nH]c2=O)O1 [compound 20, δ-(Alkyl-C18)-d4T4P]	substrates	> 50 h		132 h	
Cc1cn([C@H]2C=C[C@@H](COP(=O)(O)OP(=O)(O)OP(=O)(O)OP(=O)(O)O)O2)c(=O)[nH]c1=O [d4T4P, 2′,3′-didehydro-2′,3′-dideoxythymidine-5′-tetraphosphate]	substrate		> 150 h	534 h	> 150 h
